{"source": "patent US9403835B2", "about": "“Tetraaza-cyclopenta[a]indenyl and their use as positive allosteric modulators” (Merck Patent GmbH, priority 2011, dated 2016)", "key": {"muscarinic M1 receptor": {"biological_target": "T1, muscarinic M1 receptor (Homo sapiens, UniProt P11229)", "T1 construct": "expressed in transfected cells; host or cells: CHO (M1-CHO cells)", "T1 sequence (P11229 1-460)": "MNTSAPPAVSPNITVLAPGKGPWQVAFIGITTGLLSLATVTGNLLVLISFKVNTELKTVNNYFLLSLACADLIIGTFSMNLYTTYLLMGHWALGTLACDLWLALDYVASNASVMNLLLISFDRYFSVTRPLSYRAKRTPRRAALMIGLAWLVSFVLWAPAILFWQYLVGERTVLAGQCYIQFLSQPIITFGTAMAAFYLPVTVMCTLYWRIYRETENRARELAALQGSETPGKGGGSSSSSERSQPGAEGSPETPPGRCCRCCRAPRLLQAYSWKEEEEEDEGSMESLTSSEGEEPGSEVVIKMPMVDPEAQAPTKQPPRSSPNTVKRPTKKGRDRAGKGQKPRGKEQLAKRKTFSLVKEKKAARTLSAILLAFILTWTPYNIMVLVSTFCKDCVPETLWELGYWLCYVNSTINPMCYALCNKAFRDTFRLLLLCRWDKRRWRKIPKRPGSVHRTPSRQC", "test": "M1 PAM Assay (IP-One HTRF, IP1 in M1-CHO cells with EC20 of acetylcholine)", "type": "cell-based", "settings": "1 hour at room temperature, IP1 readout", "method": "M1-CHO cells are plated in culture medium (HAM's F12, P/S, 10% FCS) on the day before the experiment with 10 000 cells/well in a 384 well plate (3750 Corning White 384 w plate with lid). On the day of experiment, cells are washed with PBS and IPone buffer is added (glucose 5.5 mM, NaCl 146 mM, MgCl2 0.5 mM, HEPES 10 mM, LiCl 50 mM, CaCl2 1 mM, KCl 4.2 mM). Then diluted compounds (1% DMSO final concentration) are added together with EC20 of acetylcholine and incubated with the cells for 1 hour at room temperature. The intracellular concentration of IP1 is then measured using the IP-One HTRF assay from Cisbio."}}, "data": [{"smiles": "CC(C)Oc1ccccc1C(=O)N1Cc2nn3cc(Cl)cnc3c2C1", "note": "[Example 42, (6-chloro-1H,3H-2,4,7a,8-tetraaza-cyclopenta[a]inden-2-yl)-(2-isopropoxy-phenyl)-methanone]", "values": [{"measurement": "EC50", "setting": "muscarinic M1 receptor", "value": "1000 to 2000", "unit": "nM"}, {"measurement": "melting point", "value": "160 to 161", "unit": "°C"}]}]}
